Data as given in US12115373B2, “Methods for reducing the risk of strokes by pharmacotherapy to reduce the number and duration of atrial fibrillations” (Xyra, LLC, priority 2022, dated 2024).

Legend:
Assay type in all cases: in vivo
[1] = test system: patients with paroxysmal or persistent AFib; test: Clinical trial evaluation of budiodarone, 6 patients, pacemaker monitoring, two-week dose periods (Example 2); design: Duration of episodes, Mean / Duration of sinus rhythm, Mean: unit not given here; settings: for # of AFib episodes, Mean / Duration of episodes, Mean / Duration of sinus rhythm, Mean / Longest AFib Episode - hrs: two-week period, 6 patients
Experimental: This example is a clinical trial evaluation of budiodarone in treating 6 patients with paroxysmal or persistent AFib who previously evidenced episodes of long duration AFib (greater than 24 hours). In this example, the patients' heart rhythm was continuously monitored over a two-week period with a pacemaker, and were treated with different doses of budiodarone. The purpose of this example is to establish whether budiodarone reduces long duration AFib lasting more than 24 hours.

[2] = Serum half-life of budiodarone; settings: human
[3] = test system: patients with either paroxysmal or persistent AFib; test: Clinical trial: episodes of AFib greater than 6 minutes (0.1 hour), pacemaker monitoring (Example 6); settings: for Episodes of AFib > 0.1 hrs: Duration, percent of Off Drug (baseline) / Episodes of AFib > 0.1 hrs: Number, percent of Off Drug (baseline): 2 weeks (baseline 4 weeks); for Episodes of AFib > 0.1 hrs: Number / Episodes of AFib > 0.1 hrs: Duration: all tested patients, 2 weeks; for Episodes of AFib > 0.1 hrs: Duration: cumulative; for Episodes of AFib > 0.1 hrs: Fraction of hours: hours in AFib / hours monitored
Experimental: In this example, the patients' heart rhythm was continuously monitored over a twelve-week period with a pacemaker. The patients were treated with different doses (2 weeks each) of budiodarone. In addition, during this trial, the patients were under continuous monitoring and clinician supervision.
The “Number” indicates the number of AFib episodes greater than 6 minutes for all tested patients over the trial period (4 weeks for based line, 2 weeks experimental). The “Duration” in hours indicates the cumulative duration in hours over the trial period that the tested patients were measured in episodes of AFib greater than 6 minutes.
Table 8 provides a summary of the fraction of time and the number of hours per week that the patients were in episodes of AFib greater than 6 minutes in duration, on average. The percent time in AFib was reduced by 90% for doses of budiodarone at 600 mg bid and 800 mg bid.

SMILES: CC[C@H](C)OC(=O)Cc1oc2ccccc2c1C(=O)c1cc(I)c(OCCN(CC)CC)c(I)c1 [budiodarone, (S)-sec-butyl2-(3-(4-(2-(diethylamino)ethoxy)-3,5-diiodobenzoyl)benzofuran-2-yl)acetate]
- # of AFib episodes, Mean ([1]; 200 mg bid): 31
- Duration of episodes, Mean ([1]; 200 mg bid): 1.7
- Duration of sinus rhythm, Mean ([1]; 200 mg bid): 131
- Longest AFib Episode - hrs ([1]; 200 mg bid): 7 h
- # of AFib episodes, Mean ([1]; 400 mg bid): 37
- Duration of episodes, Mean ([1]; 400 mg bid): 0.6
- Duration of sinus rhythm, Mean ([1]; 400 mg bid): 48
- Longest AFib Episode - hrs ([1]; 400 mg bid): 13 h
- # of AFib episodes, Mean ([1]; 600 mg bid): 42
- Duration of episodes, Mean ([1]; 600 mg bid): 0.1
- Duration of sinus rhythm, Mean ([1]; 600 mg bid): 103
- Longest AFib Episode - hrs ([1]; 600 mg bid): 7 h
- # of AFib episodes, Mean ([1]; 800 mg bid): 24
- Duration of episodes, Mean ([1]; 800 mg bid): 0.5
- Duration of sinus rhythm, Mean ([1]; 800 mg bid): 42
- Longest AFib Episode - hrs ([1]; 800 mg bid): 5 h
- episodes of long duration AFib lasting more than 24 hours eliminated as compared to Baseline ([1]; all dose levels (200-800 mg bid)): over 70%
- reduction in AFib burden (number of episodes over a 2-week period times the average duration) ([1]; vs baseline, dose levels 200-800 mg bid): more than 64%
- half-life ([2]; after administration): 6 to 7 h
- time to reach steady state ([2]; read-out: steady state (about 5x the serum half-life)): 1800 to 2100 min
- Episodes of AFib > 0.1 hrs: Duration in hrs/week (average per patient) ([3]; 200 mg bid): 5.9 hrs/week
- Episodes of AFib > 0.1 hrs: Fraction of hours (percent), percent time in AFib ([3]; 200 mg bid): (3.5%)
- Episodes of AFib > 0.1 hrs: Duration, percent of Off Drug (baseline) ([3]; 200 mg bid): 11%
- Episodes of AFib > 0.1 hrs: Number, percent of Off Drug (baseline) ([3]; 200 mg bid): 52 (52%)
- Episodes of AFib > 0.1 hrs: Number ([3]; 200 mg bid): 52 (52%)
- Episodes of AFib > 0.1 hrs: Duration ([3]; 200 mg bid): 71 h
- Episodes of AFib > 0.1 hrs: Fraction of hours ([3]; 200 mg bid): 71/2016
- drop in percent time in AFib ([3]; 200 mg twice a day): 76.7%
- Episodes of AFib > 0.1 hrs: Duration in hrs/week (average per patient) ([3]; 400 mg bid): 5 hrs/week
- Episodes of AFib > 0.1 hrs: Fraction of hours (percent), percent time in AFib ([3]; 400 mg bid): (3.0%)
- Episodes of AFib > 0.1 hrs: Duration, percent of Off Drug (baseline) ([3]; 400 mg bid): 10%
- Episodes of AFib > 0.1 hrs: Number, percent of Off Drug (baseline) ([3]; 400 mg bid): 28 (28%)
- Episodes of AFib > 0.1 hrs: Number ([3]; 400 mg bid): 28 (28%)
- Episodes of AFib > 0.1 hrs: Duration ([3]; 400 mg bid): 61 h
- Episodes of AFib > 0.1 hrs: Fraction of hours ([3]; 400 mg bid): 61/2016
- Episodes of AFib > 0.1 hrs: Duration in hrs/week (average per patient) ([3]; 600 mg bid): 2.5 hrs/week
- Episodes of AFib > 0.1 hrs: Fraction of hours (percent), percent time in AFib ([3]; 600 mg bid): (1.5%)
- reduction of percent time in AFib ([3]; 600 mg bid and 800 mg bid (Table 8)): 90%
- reduction of the number of episodes of AFib longer than 6 minutes ([3]; 600 mg bid or 800 mg bid): more than 80%
- Episodes of AFib > 0.1 hrs: Duration, percent of Off Drug (baseline) ([3]; 600 mg bid): 4.8%
- Episodes of AFib > 0.1 hrs: Number, percent of Off Drug (baseline) ([3]; 600 mg bid): 16 (16%)
- Episodes of AFib > 0.1 hrs: Number ([3]; 600 mg bid): 16 (16%)
- Episodes of AFib > 0.1 hrs: Duration ([3]; 600 mg bid): 30 h
- Episodes of AFib > 0.1 hrs: Fraction of hours ([3]; 600 mg bid): 30/2016
- drop in percent time in AFib ([3]; 600 mg twice a day): 90%
- Episodes of AFib > 0.1 hrs: Duration in hrs/week (average per patient) ([3]; 800 mg bid): 1.3 hrs/week
- Episodes of AFib > 0.1 hrs: Fraction of hours (percent), percent time in AFib ([3]; 800 mg bid): (0.8%)
- Episodes of AFib > 0.1 hrs: Duration, percent of Off Drug (baseline) ([3]; 800 mg bid): 2.5%
- Episodes of AFib > 0.1 hrs: Number, percent of Off Drug (baseline) ([3]; 800 mg bid): 15 (15%)
- Episodes of AFib > 0.1 hrs: Number ([3]; 800 mg bid): 15 (15%)
- Episodes of AFib > 0.1 hrs: Duration ([3]; 800 mg bid): 16 h
- Episodes of AFib > 0.1 hrs: Fraction of hours ([3]; 800 mg bid): 16/2016
- drop in percent time in AFib ([3]; 800 mg twice a day): 94.8%
